Laboratory results: the NIST ThermoML archive (doi:10.1016/j.jct.2019.02.011)

Experiment: xn = mol fraction of the nth substance listed
Details: Liquid, Vibrating tube method

COC(=O)OC [dimethyl carbonate] + CCO
mass density [kg/m3]
Details | 100 kPa | 5000 kPa | 10000 kPa | 15000 kPa | 20000 kPa | 25000 kPa | 30000 kPa | 35000 kPa | 40000 kPa
298.15 K, x1 = 0.0252 | – | – | – | – | – | 814.77 | 818.23 | 821.35 | 824.85
298.15 K, x1 = 0.0506 | – | – | – | – | – | 824.39 | 827.85 | 831.03 | 834.55
298.15 K, x1 = 0.0757 | – | – | – | – | – | 833.72 | 837.24 | 840.42 | 843.95
298.15 K, x1 = 0.1003 | – | – | – | – | – | 842.57 | 846.09 | 849.38 | 852.92
298.15 K, x1 = 0.1508 | – | – | – | – | – | 860.52 | 864.11 | 867.41 | 871.01
298.15 K, x1 = 0.2 | – | – | – | – | – | 877.33 | 880.97 | 884.34 | 887.93
298.15 K, x1 = 0.2547 | – | – | – | – | – | 895.44 | 899.14 | 902.52 | 906.18
298.15 K, x1 = 0.3002 | – | – | – | – | – | 910.03 | 913.74 | 917.13 | 920.8
298.15 K, x1 = 0.3498 | – | – | – | – | – | 925.47 | 929.2 | 932.65 | 936.29
298.15 K, x1 = 0.4 | – | – | – | – | – | 940.64 | 944.38 | 947.84 | 951.52
298.15 K, x1 = 0.449 | – | – | – | – | – | 954.89 | 958.68 | 962.16 | 965.81
298.15 K, x1 = 0.4996 | – | – | – | – | – | 969.11 | 972.91 | 976.39 | 980.05
298.15 K, x1 = 0.5507 | – | – | – | – | 979.03 | 982.99 | 986.8 | 990.35 | 994.01
298.15 K, x1 = 0.6005 | – | – | – | – | 992.03 | 996 | 999.82 | 1003.37 | 1006.99
298.15 K, x1 = 0.6455 | – | – | – | – | 1003.31 | 1007.29 | 1011.17 | 1014.73 | 1018.41
298.15 K, x1 = 0.6931 | – | – | – | – | 1014.9 | 1018.88 | 1022.77 | 1026.34 | 1030.03
298.15 K, x1 = 0.7502 | – | – | – | – | 1028.23 | 1032.23 | 1036.12 | 1039.75 | 1043.4
298.15 K, x1 = 0.8009 | – | – | – | – | 1039.69 | 1043.7 | 1047.6 | 1051.24 | 1054.89
298.15 K, x1 = 0.8505 | – | – | – | – | 1050.49 | 1054.48 | 1058.39 | 1062.04 | 1065.71
298.15 K, x1 = 0.9008 | – | – | – | – | 1061.05 | 1065.07 | 1068.99 | 1072.64 | 1076.29
298.15 K, x1 = 0.9255 | – | – | – | – | 1066.12 | 1070.15 | 1074.07 | 1077.73 | 1081.38
298.15 K, x1 = 0.9477 | – | – | – | – | 1070.6 | 1074.63 | 1078.55 | 1082.21 | 1085.85
298.15 K, x1 = 0.9735 | – | – | – | – | 1075.75 | 1079.76 | 1083.68 | 1087.3 | 1090.94
298.15 K, x1 = 1 | – | – | – | – | 1080.9 | 1084.89 | 1088.82 | 1092.44 | 1096.04
303.15 K, x1 = 0.0252 | 790.52 | 794.85 | 799.09 | 803.19 | 807.07 | 810.85 | 814.45 | – | –
303.15 K, x1 = 0.0506 | 799.8 | 804.24 | 808.54 | 812.68 | 816.57 | 820.4 | 824.05 | – | –
303.15 K, x1 = 0.0757 | 808.95 | 813.38 | 817.69 | 821.83 | 825.78 | 829.67 | 833.32 | – | –
303.15 K, x1 = 0.1003 | 817.66 | 822.15 | 826.46 | 830.66 | 834.61 | 838.5 | 842.15 | – | –
303.15 K, x1 = 0.1508 | 835.2 | 839.75 | 844.12 | 848.37 | 852.39 | 856.28 | 859.99 | – | –
303.15 K, x1 = 0.2 | 851.75 | 856.29 | 860.68 | 864.98 | 869.06 | 873.01 | 876.77 | – | –
303.15 K, x1 = 0.2547 | 869.58 | 874.18 | 878.59 | 882.88 | 886.98 | 890.99 | 894.76 | – | –
303.15 K, x1 = 0.3002 | 883.92 | 888.57 | 893.03 | 897.33 | 901.44 | 905.46 | 909.28 | – | –
303.15 K, x1 = 0.3498 | 899.15 | 903.81 | 908.28 | 912.64 | 916.76 | 920.83 | 924.6 | – | –
303.15 K, x1 = 0.4 | 914.01 | 918.72 | 923.21 | 927.61 | 931.75 | 935.83 | 939.65 | – | –
303.15 K, x1 = 0.449 | 928.1 | 932.82 | 937.32 | 941.72 | 945.87 | 949.95 | 953.78 | – | –
303.15 K, x1 = 0.4996 | 942.11 | 946.83 | 951.34 | 955.75 | 959.95 | 964.05 | 967.88 | – | –
303.15 K, x1 = 0.5507 | 955.78 | 960.51 | 965.03 | 969.44 | 973.66 | 977.76 | 981.64 | – | –
303.15 K, x1 = 0.6005 | 968.59 | 973.37 | 977.9 | 982.31 | 986.54 | 990.65 | 994.54 | – | –
303.15 K, x1 = 0.6455 | 979.73 | 984.57 | 989.11 | 993.57 | 997.8 | 1001.97 | 1005.86 | – | –
303.15 K, x1 = 0.6931 | 991.23 | 996.02 | 1000.62 | 1005.08 | 1009.33 | 1013.44 | 1017.34 | – | –
303.15 K, x1 = 0.7502 | 1004.42 | 1009.26 | 1013.82 | 1018.28 | 1022.54 | 1026.71 | 1030.61 | – | –
303.15 K, x1 = 0.8009 | 1015.74 | 1020.59 | 1025.15 | 1029.62 | 1033.88 | 1038.07 | 1041.97 | – | –
303.15 K, x1 = 0.8505 | 1026.43 | 1031.28 | 1035.85 | 1040.32 | 1044.59 | 1048.83 | – | – | –
303.15 K, x1 = 0.9008 | 1036.88 | 1041.74 | 1046.31 | 1050.81 | 1055.12 | 1059.33 | – | – | –
303.15 K, x1 = 0.9255 | 1041.88 | 1046.76 | 1051.32 | 1055.83 | 1060.15 | 1064.37 | – | – | –
303.15 K, x1 = 0.9477 | 1046.34 | 1051.21 | 1055.79 | 1060.28 | 1064.6 | 1068.85 | – | – | –
303.15 K, x1 = 0.9735 | 1051.45 | 1056.32 | 1060.89 | 1065.37 | 1069.67 | 1073.92 | – | – | –
303.15 K, x1 = 1 | 1056.61 | 1061.47 | 1066.02 | 1070.49 | 1074.79 | 1078.99 | – | – | –
